This is an account of results in patent publication US20240148821A1, “PHARMACEUTICAL USE OF CYCLIC PEPTIDE COMPOUND” (CHUGAI SEIYAKU KABUSHIKI KAISHA, priority 2021, published 2024).

Numbered stars: 1 amine (or outer) side, 2 acyl side, 3 side chain; on linkers, the order of the positions; unused ones are H or OH. Bridge positions count the residues as written; N and C are the ends. Square brackets hold non-standard residues; d marks the D form. Peptide text beside a SMILES is read from it. * marks the point of attachment. hPhe(3-Cl-4-CF3) = N[C@@H](CCc1ccc(C(F)(F)F)c(Cl)c1)C(=O)O; hPhe(4-CF3) = N[C@@H](CCc1ccc(C(F)(F)F)cc1)C(=O)O; X24 = COc1cncc(C[C@@H](C(=O)[*:2])N(C)[*:1])c1; 3Oxa8azabicyclo(3.2.1)octane = C1CC2COCC1N2*; NMePhe(4-Cl) = CN[C@@H](Cc1ccc(Cl)cc1)C(=O)O; NMePhe(4-Me) = CN[C@@H](Cc1ccc(C)cc1)C(=O)O; NMeAla(cPent) = CN[C@@H](CC1CCCC1)C(=O)O; Oic = O=C(O)[C@@H]1C[C@@H]2CCCC[C@@H]2N1; Phe(3-I) = N[C@@H](Cc1cccc(I)c1)C(=O)O; NMeCha = CN[C@@H](CC1CCCCC1)C(=O)O; NMeChg = CN[C@H](C(=O)O)C1CCCCC1; NMeI = CC[C@H](C)[C@H](NC)C(=O)O; NMeD = CN[C@@H](CC(=O)O)C(=O)O; NMeL = CN[C@@H](CC(C)C)C(=O)O; NMeV = CN[C@H](C(=O)O)C(C)C; d(β3hA) = C[C@@H](N)CC(=O)O; NMeS = CN[C@@H](CO)C(=O)O; dPip = O=C(O)[C@H]1CCCCN1; Morpholide = C1CN(*)CCO1; NMeA = CN[C@@H](C)C(=O)O; NMeAib = CNC(C)(C)C(=O)O; Piperidide = C1CCN(*)CC1; Ac5c = NC1(C(=O)O)CCCC1; Aze = O=C(O)[C@@H]1CCN1; NPrGly = CCCNCC(=O)O; Sar = CNCC(=O)O; Propyl = CCC*

This experiment relates to Human pancreatic cancer cell line AsPC-1 (G12D mutation Kras). The experiment is described as follows: AsPC-1 cell growth inhibition (AsPC-1 CGI). The class given is cell-based. Particulars: read-out: AsPC-1 cell growth inhibition, 50% growth inhibitory concentration (IC50 value); 96 hours, CellTiter-Glo, values classified in ranges. (ATP-based viability assays read luminescence as a measure of living cells.)
Procedure: Test compounds were serially dilated with dimethyl sulfoxide, and 200 nL was then dispensed to a U-bottom 96-well plate using Labcyte Echo. […] The cell suspension was dispensed to a. plate containing a test compound at 100 μL per well and incubated at 37° C. in a 5% carbon dioxide gas incubator. 96 hours later, 80 μL of CellTiter-Glo (Promega) was added to each well and fluorescence was measured.
`CC[C@H](C)[C@@H]1NC(=O)[C@H](C)N(C)C(=O)C[C@@H](C(=O)N2CCCCC2)N(C)C(=O)[C@H](C(C)C)N(C)C(=O)C2(CCCC2)NC(=O)[C@@H]2CCCN2C(=O)[C@H](CCc2ccc(C(F)(F)F)c(Cl)c2)NC(=O)[C@H]2CCCCN2C(=O)[C@H](CC2CCCCC2)N(C)C(=O)[C@@H]2CCN2C(=O)CN(C)C1=O` [Compound 553] ([NMeA]I[Sar][Aze][NMeCha][dPip][hPhe(3-Cl-4-CF3)]P[Ac5c][NMeV][NMeD]-Piperidide; lactam N-11): the IC50 is greater than 500 nM. With `CC[C@H](C)[C@@H]1NC(=O)[C@H](CC(C)C)N(C)C(=O)C[C@@H](C(=O)N2CCCCC2)N(C)C(=O)[C@H](CC(C)C)NC(=O)C(C)(C)N(C)C(=O)[C@H](Cc2ccc(OC)cc2)NC(=O)[C@H](Cc2cccc(I)c2)NC(=O)CN(C)C(=O)[C@H](Cc2ccc(C)cc2)N(C)C(=O)CN(C)C(=O)CN(C)C1=O` [Compound 247] ([NMeL]I[Sar][Sar][NMePhe(4-Me)][Sar][Phe(3-I)]Y(Me)[NMeAib]L[NMeD]-Piperidide; lactam N-11), the IC50 is greater than 500 nM. The same measure for `CC[C@H](C)[C@@H]1NC(=O)[C@H](CC(C)C)N(C)C(=O)C[C@@H](C(=O)N2CCCCC2)N(C)C(=O)[C@H](C2CCCCC2)N(C)C(=O)C2(CCCC2)NC(=O)[C@H](Cc2cncc(OC)c2)N(C)C(=O)[C@H](CCc2ccc(C(F)(F)F)c(Cl)c2)NC(=O)CN(C)C(=O)[C@H](CC2CCCCC2)N(C)C(=O)[C@@H]2CCN2C(=O)CN(C)C1=O` [Compound 770] ([NMeL]I[Sar][Aze][NMeCha][Sar][hPhe(3-Cl-4-CF3)][X24][Ac5c][NMeChg][NMeD]-Piperidide; lactam N-11): greater than 500 nM. Then `CC[C@H](C)[C@@H]1NC(=O)[C@H](C(C)C)N(C)C(=O)C[C@@H](C)NC(=O)[C@H](CC(C)C)N(C)C(=O)C2(CCCC2)NC(=O)[C@H](CC(C)C)N(C)C(=O)[C@H](CCc2ccc(C(F)(F)F)cc2)NC(=O)CN(C)C(=O)[C@H](Cc2ccc(Cl)cc2)N(C)C(=O)[C@@H]2CCN2C(=O)CN(C)C1=O` [Compound 645] (cyclo([Ac5c][NMeL][d(β3hA)][NMeV]I[Sar][Aze][NMePhe(4-Cl)][Sar][hPhe(4-CF3)][NMeL])), with greater than 500 nM; and `CCCOC[C@H]1C(=O)N(C)[C@H](C(=O)N2CCCCC2)CC(=O)N(C)[C@@H](CC(C)C)C(=O)N[C@@H]([C@@H](C)CC)C(=O)N(C)CC(=O)N(C)CC(=O)N(C)[C@@H](CC2CCCCC2)C(=O)N(C)CC(=O)N[C@@H](CCc2ccc(C(F)(F)F)c(Cl)c2)C(=O)N2CCC[C@H]2C(=O)NC2(CCCC2)C(=O)N1C` [Compound 1771] ([NMeL]I[Sar][Sar][NMeCha][Sar][hPhe(3-Cl-4-CF3)]P[Ac5c][NMeS](Propyl)[NMeD]-Piperidide; lactam N-11), with greater than 500 nM; and `CC[C@H](C)[C@@H]1NC(=O)[C@H](CC(C)C)N(C)C(=O)C[C@@H](C(=O)N2CCOCC2)N(C)C(=O)[C@H](C(C)C)N(C)C(=O)C2(CCCC2)NC(=O)[C@@H]2CCCN2C(=O)[C@H](CCc2ccc(C(F)(F)F)c(Cl)c2)NC(=O)CN(C)C(=O)[C@H](CC2CCCC2)N(C)C(=O)CN(C)C(=O)CN(C)C1=O` [Compound 1848] ([NMeL]I[Sar][Sar][NMeAla(cPent)][Sar][hPhe(3-Cl-4-CF3)]P[Ac5c][NMeV][NMeD]-Morpholide; lactam N-11), with greater than 500 nM.

Regarding `CCCN1CC(=O)N(C)CC(=O)N(C)[C@@H](CC2CCCCC2)C(=O)N(C)CC(=O)N[C@@H](CCc2ccc(C(F)(F)F)c(Cl)c2)C(=O)N2CCC[C@H]2C(=O)NC2(CCCC2)C(=O)N(C)[C@@H](C(C)C)C(=O)N[C@H](C)CC(=O)N(C)[C@@H](CC(C)C)C(=O)N[C@@H]([C@@H](C)CC)C1=O` [Compound 116] (cyclo([Ac5c][NMeV][d(β3hA)][NMeL]I[NPrGly][Sar][NMeCha][Sar][hPhe(3-Cl-4-CF3)]P)), the IC50 is greater than 500 nM.

Turning to `CC[C@H](C)[C@@H]1NC(=O)[C@H](CC(C)C)N(C)C(=O)C[C@@H](C(=O)N2C3CCC2COC3)NC(=O)[C@H]([C@@H](C)CC)N(C)C(=O)C2(CCCC2)NC(=O)[C@@H]2CCCN2C(=O)[C@H](CCc2ccc(C(F)(F)F)c(Cl)c2)NC(=O)CN(C)C(=O)[C@H](CC2CCCCC2)N(C)C(=O)CN(C)C(=O)CN(C)C1=O` [Compound 1257] ([NMeL]I[Sar][Sar][NMeCha][Sar][hPhe(3-Cl-4-CF3)]P[Ac5c][NMeI]D-{3Oxa8azabicyclo(3.2.1)octane}; lactam N-11), the IC50 is greater than 500 nM. Turning to `CC[C@H](C)[C@@H]1NC(=O)[C@H](CC(C)C)N(C)C(=O)C[C@@H](C(=O)N2CCCCC2)N(C)C(=O)[C@H](C2CCCCC2)N(C)C(=O)C2(CCCC2)NC(=O)[C@@H]2C[C@@H]3CCCC[C@@H]3N2C(=O)[C@H](CCc2ccc(C(F)(F)F)c(Cl)c2)NC(=O)CN(C)C(=O)[C@H](CC2CCCCC2)N(C)C(=O)CN(C)C(=O)CN(C)C1=O` [Compound 297] ([NMeL]I[Sar][Sar][NMeCha][Sar][hPhe(3-Cl-4-CF3)][Oic][Ac5c][NMeChg][NMeD]-Piperidide; lactam N-11), the IC50 is greater than 500 nM.
